In patent US9975900B2, “Substituted imidazo[1,2-α]pyrazines for treating spinal muscular atrophy” (Hoffmann-La Roche Inc., priority 2014, dated 2018) one finds EC (1.5-fold) and maximal fold induction data, which are given here for 11 compounds.

Molecules are shown by their SMILES. Where a name gives a salt, the structure may show the parent alone.

In assay [1] the test system is SMN protein in SMA patient fibroblast cells (GM03813). Put plainly: SMN protein assay (HTRF) in cultured cells. It is filed as cell-based. Conditions: Homo sapiens, SMA Type 1 patient fibroblasts, 48 hours; for EC (1.5-fold): 7-point concentration curve, concentration giving 1.5 times SMN protein vs vehicle, read-out: EC1.5x SMN protein (EC1.5x concentration for SMN protein expression); for maximal fold induction: fold increase relative to vehicle control, read-out: Max. fold increase of SMN protein. The protocol: The SMN HTRF (homogeneous time resolved fluorescence) assay is used to quantify the level of SMN protein in SMA patient fibroblast cells treated with test compounds. Materials used and respective sources are listed below in Table 4.
Cells are thawed and cultured in DMEM-10% FBS for 72 hours. Cells are trypsinized, counted and re-suspended to a concentration of 25,000 cells/mL in DMEM-10% FBS. The cell suspensions are plated at 5,000 cells per well in a 96 well microtiter plate and incubated for 3 to 5 hours. Test compounds are serially diluted 3.16-fold in 100% DMSO to generate a 7-point concentration curve. 1 μL of test compound solution is transferred to cell-containing wells and cells are incubated for 48 hours in a cell culture incubator (37° C., 5% CO2, 100% relative humidity). Triplicate samples are set up for each test compound concentration. After 48 hours, the supernatant is removed from the wells and 25 μL of the RIPA lysis buffer, containing protease inhibitors, is added to the wells and incubated with shaking at room temperature for 1 hour. 25 μL of the diluent is added and then 35 μL of the resulting lysate is transferred to a 384-well plate, where each well contains 5 μL of the antibody solution (1:100 dilution of anti-SMN d2 and anti-SMN cryptate in SMN reconstitution buffer). The plate is centrifuged for 1 minute to bring the solution to the bottom of the wells, then incubated overnight at room temperature. Fluorescence for each well of the plate at 665 nm and 620 nm is measured on an EnVision multilabel plate reader (Perkin-Elmer).
The normalized fluorescence signal is calculated for each sample, Blank and vehicle control well by dividing the signal at 665 nm by the signal at 620 nm. Normalizing the signal accounts for possible fluorescence quenching due to the matrix effect of the lysate. The ΔF value (a measurement of SMN protein abundance as a percent value) for each sample well is calculated by subtracting the normalized average fluorescence for the Blank control wells from the normalized fluorescence for each sample well, then dividing this difference by the normalized average fluorescence for the Blank control wells and multiplying the resulting value by 100. The ΔF value for each sample well represents the SMN protein abundance from test compound-treated samples. The ΔF value for each sample well is divided by the ΔF value for the vehicle control wells to calculate the fold increase in SMN protein abundance relative to the vehicle control. Table 5 provides EC1.5× concentrations for SMN protein expression that was obtained from the 7-point concentration data generated according to the above procedure for particular compounds of the present invention.
Table 6 provides the maximum fold increase of SMN protein that was obtained from the 7-point concentration data generated according to the above procedure for particular compounds of the present invention
(In general: Time-resolved FRET reads energy transfer from a long-lived donor to a nearby acceptor.)

Assay [2] has as its system full length SMN2 minigene mRNA (HEK293H cells stably transfected with the SMN2-A minigene construct). In words: RT-qPCR assay for SMN2 minigene pre-mRNA splicing in cultured cells. It is filed as cell-based. Conditions: Homo sapiens, HEK293-H, 24 hours, 7-point concentration curve, concentration giving 1.5-fold FL SMN2mini mRNA vs vehicle, read-out: EC1.5x minigene (EC1.5x concentration for production of full length SMN2 minigene mRNA). The protocol:
The reverse transcription-quantitative PCR-based (RT-qPCR) assay is used to quantify the level of the full length SMN2 minigene (referred to herein by the term “FL SMN2mini”) mRNA containing SMN2 exon 7 in a HEK293H cell line stably transfected with said minigene and treated with a test compound. Materials used and respective sources are listed below in Table 1.
The SMN2-A minigene construct was prepared as described in International Patent Application WO2009/151546A1 page 145 paragraph [00400] to page 147 paragraph [00412] (incl. FIG. 1 and FIG. 3 therein).
HEK293H cells stably transfected with the SMN2-A minigene construct (10,000 cells/well) are seeded in 200 μL of cell culture medium (DMEM plus 10% FBS, with 200 μg/mL hygromycin) in 96-well flat-bottom plates and the plate is immediately swirled to ensure proper dispersal of cells and the formation of an even monolayer of cells. Cells are allowed to attach for 6 hours. Test compounds are serially diluted 3.16-fold in 100% DMSO to generate a 7-point concentration curve. A solution of test compound (1 μL, 200× in DMSO) is added to each cell-containing well and the plate is incubated for 24 hours in a cell culture incubator (37° C., 5% CO2, 100% relative humidity). 2 replicates are prepared for each test compound concentration. The cells are then lysed in the Cells-To-Ct lysis buffer and the lysate is stored at −80° C.
Full length SMN2-A minigene and GAPDH mRNA are quantified using the primers and probes referenced in Table 2. Primer SMN Forward A (SEQ ID NO.1) hybridizes to a nucleotide sequence in exon 7 (nucleotide 22 to nucleotide 40), primer SMN Reverse A (SEQ ID NO.2) hybridizes to a nucleotide sequence in the coding sequence of Firefly luciferase, SMN Probe A (SEQ ID NO.3) hybridizes to a nucleotide sequence in exon 7 (nucleotide 50 to nucleotide 54) and exon 8 (nucleotide 1 to nucleotide 21). The combination of these three oligonucleotides detects only SMN1 or SMN2 minigenes (RT-qPCR) and will not detect endogenous SMN1 or SMN2 genes.
The SMN forward and reverse primers are used at final concentrations of 0.4 μM. The SMN probe is used at a final concentration of 0.15 μM. The GAPDH primers are used at final concentrations of 0.2 μM and the probe at 0.15 μM.
The SMN2-minigene GAPDH mix (15 μL total volume) is prepared by combining 7.5 of 2×RT-PCR buffer, 0.4 μL of 25×RT-PCR enzyme mix, 0.75 μL of 20× GAPDH primer-probe mix, […] of water, 2 μL of 10-fold diluted cell lysate, 0.06 μL of 100 μM SMN forward primer, 0.06 μL of 100 μM SMN reverse primer, and 0.225 μL of 100 μM SMN probe.
PCR is carried out at the following temperatures for the indicated time: Step 1: 48° C. (15 min); Step 2: 95° C. (10 min); Step 3: 95° C. (15 sec); Step 4: 60° C. (1 min); then repeat Steps 3 and 4 for a total of 40 cycles.
Each reaction mixture contains both SMN2-A minigene and GAPDH primers/probe sets (multiplex design), allowing simultaneous measurement of the levels of two transcripts.
The increase in the abundance of the FL SMN2mini mRNA relative to that in cells treated with vehicle control is determined from real-time PCR data using a modified ΔΔCt method (as described in Livak and Schmittgen, Methods, 2001, 25:402-8). The amplification efficiency E is calculated from the slope of the amplification curve for FL SMN2mini and GAPDH individually. The abundance of FL SMN2mini and GAPDH mRNA are then calculated as (1+E)^−Ct, where Ct is the threshold value for each amplicon. The abundance of FL SMN2mini mRNA is normalized to GAPDH mRNA abundance. The normalized FL SMN2mini mRNA abundance from test compound-treated samples is then divided by normalized FL SMN2mini mRNA abundance from vehicle-treated cells to determine the level of FL SMN2mini mRNA relative to vehicle control. […]

Regarding `Cc1cn2cc(NC(=O)c3ccc(N4CCNCC4)cc3F)ncc2n1` [Example 1, 2-fluoro-N-(2-methylimidazo[1,2-a]pyrazin-6-yl)-4-piperazin-1-ylbenzamide hydrochloride], in assay [1], the EC (1.5-fold) was 0.087 µM and the maximal fold induction was found to be 1.9. Further, the EC (1.5-fold) in assay [2] is 0.0374 µM.
Turning to `Cc1cn2cc(NC(=O)c3ccc(N4CCNCC4)cc3)ncc2n1` [Example 2, N-(2-methylimidazo[1,2-a]pyrazin-6-yl)-4-piperazin-1-ylbenzamide hydrochloride], in assay [1], the EC (1.5-fold) is 2.25 µM and the maximal fold induction amounted to 1.74. In addition, the EC (1.5-fold) in assay [2] was 1.05 µM.
In the same order, the values of `CCOc1cc(N2CCN3CCC[C@H]3C2)ccc1C(=O)Nc1cn2cc(C)nc2cn1` [Example 3, 4-[(8aS)-3,4,6,7,8,8a-hexahydro-1H-pyrrolo[1,2-a]pyrazin-2-yl]-2-ethoxy-N-(2-methylimidazo[1,2-a]pyrazin-6-yl)benzamide] are 0.409 µM, 1.83 and 0.102 µM.
Consider `CCOc1cc(N2CCN[C@@H](C)C2)ccc1C(=O)Nc1cn2cc(C)nc2cn1` [Example 4, 2-ethoxy-N-(2-methylimidazo[1,2-a]pyrazin-6-yl)-4-[(3S)-3-methylpiperazin-1-yl]benzamide], for which, in assay [1], the EC (1.5-fold) worked out at 0.122 µM and the maximal fold induction turned out to be 1.92. The EC (1.5-fold) in assay [2] was determined as 0.0263 µM.
In the same order, the values of `CCOc1cc(N2CCN[C@H](C)C2)ccc1C(=O)Nc1cn2cc(C)nc2cn1` [Example 5, 2-ethoxy-N-(2-methylimidazo[1,2-a]pyrazin-6-yl)-4-[(3R)-3-methylpiperazin-1-yl]benzamide] are 0.185 µM, 1.9 and 0.041 µM.
With `CCOc1cc(N2CCN3CCC[C@@H]3C2)ccc1C(=O)Nc1cn2cc(C)nc2cn1` [Example 6, 4-[(8aR)-3,4,6,7,8,8a-hexahydro-1H-pyrrolo[1,2-a]pyrazin-2-yl]-2-ethoxy-N-(2-methylimidazo[1,2-a]pyrazin-6-yl)benzamide], in assay [1], the EC (1.5-fold) was 0.428 µM and the maximal fold induction came to 1.71. The EC (1.5-fold) in assay [2] was 0.101 µM.
In the same order, the values of `Cc1cn2cc(NC(=O)c3ccc(N4CCN5CCC[C@@H]5C4)cc3F)ncc2n1` [Example 7, 4-[(8aR)-3,4,6,7,8,8a-hexahydro-1H-pyrrolo[1,2-a]pyrazin-2-yl]-2-fluoro-N-(2-methylimidazo[1,2-a]pyrazin-6-yl)benzamide] are 0.872 µM, 1.64 and 0.0484 µM.
For the compound `Cc1cn2cc(NC(=O)c3ccc(N4CCN5CCC[C@H]5C4)cc3F)ncc2n1` [Example 8, 4-[(8aS)-3,4,6,7,8,8a-hexahydro-1H-pyrrolo[1,2-a]pyrazin-2-yl]-2-fluoro-N-(2-methylimidazo[1,2-a]pyrazin-6-yl)benzamide], in assay [1], the EC (1.5-fold) is 0.351 µM and the maximal fold induction turned out to be 1.77. In assay [2], the EC (1.5-fold) is 0.0407 µM.
Consider `CCOc1cc(N2CCCNCC2)ccc1C(=O)Nc1cn2cc(C)nc2cn1` [Example 9, 4-(1,4-diazepan-1-yl)-2-ethoxy-N-(2-methylimidazo[1,2-a]pyrazin-6-yl)benzamide], for which the EC (1.5-fold) in assay [1] was 0.345 µM; in assay [2] it was 0.098 µM. The maximal fold induction in assay [1] amounted to 1.73.
The like results for `CCOc1cc(N2C[C@@H](C)N[C@@H](C)C2)ccc1C(=O)Nc1cn2cc(C)nc2cn1` [Example 10, 4-[(3S,5R)-3,5-dimethylpiperazin-1-yl]-2-ethoxy-N-(2-methylimidazo[1,2-a]pyrazin-6-yl)benzamide] were, in that order, 0.13 µM, 0.0383 µM and 1.91.
With `Cc1cn2cc(NC(=O)c3ccc(N4CCN[C@H](C)C4)cc3F)nc(C)c2n1` [Example 11, N-(2,8-dimethylimidazo[1,2-a]pyrazin-6-yl)-2-fluoro-4-[(3R)-3-methylpiperazin-1-yl]benzamide], in assay [1], the EC (1.5-fold) amounted to 0.0522 µM and the maximal fold induction stood at 1.8. In addition, the EC (1.5-fold) in assay [2] was determined as 0.0164 µM.
